{"source": "patent US20260125382A1", "about": "“COMPOUNDS FOR INHIBITING OR DEGRADING CDK2 AND/OR CDK9 AND MEDICINAL USE THEREOF” (KOREA RESEARCH INSTITUTE OF CHEMICAL TECHNOLOGY, priority 2022, published 2026)", "key": {"CDK9": {"target": "T1, CDK9 (Homo sapiens, UniProt P50750)", "T1 construct": "endogenous in cells; host or cells: MDA-MB-231", "T1 sequence (P50750 whole entry)": "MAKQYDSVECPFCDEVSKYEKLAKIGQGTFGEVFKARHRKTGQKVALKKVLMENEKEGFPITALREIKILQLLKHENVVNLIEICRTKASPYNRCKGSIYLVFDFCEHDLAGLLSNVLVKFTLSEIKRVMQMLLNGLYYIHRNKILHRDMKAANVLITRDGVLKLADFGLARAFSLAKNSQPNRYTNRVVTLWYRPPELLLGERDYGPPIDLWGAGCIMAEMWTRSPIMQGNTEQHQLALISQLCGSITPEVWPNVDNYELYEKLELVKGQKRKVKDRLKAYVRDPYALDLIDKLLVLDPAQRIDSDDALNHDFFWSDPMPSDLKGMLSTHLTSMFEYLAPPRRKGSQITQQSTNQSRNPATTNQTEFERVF", "assay": "CDK protein degradation activity (Western blotting), CDK9", "type": "cell-based", "conditions": "MDA-MB-231 cells, 16 hours, Western blot", "procedure,_shortened": "(§1)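 MDA-MB-231 cells treated 16 h with compound at 100 nM, 1 μM or 10 μM, with DMSO as control. Lysates run on SDS-PAGE and immunoblotted for CDK2, CDK9 and tubulin; band levels quantified by densitometry.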"}, "CDK2": {"target": "T2, CDK2 (Homo sapiens, UniProt P24941)", "T2 construct": "endogenous in cells; host or cells: MDA-MB-231", "assay": "CDK protein degradation activity (Western blotting), CDK2", "type": "cell-based", "conditions": "MDA-MB-231 cells, 16 hours, Western blot", "procedure,_shortened": "as §1"}}}
{"smiles": "N#Cc1cccc(C(=O)N[C@H]2C[C@@H](n3cnc4c(Nc5ccc(N6CCN(CC7CCN(c8cc9c(cc8F)C(=O)N(C8CCC(=O)NC8=O)C9=O)CC7)CC6)cc5)ncnc43)C2)n1", "note": "(stereo partly drawn) [Compound 414, 6-cyano-N-((1s,3s)-3-(6-((4-(4-((1-(2-(2,6-dioxopiperidin-3-yl)-6-fluoro-1,3-dioxoisoindolin-5-yl)piperidin-4-yl)methyl)piperazin-1-yl)phenyl)amino)-9H-purin-9-yl)cyclobutyl)picolinamide]", "values": [{"measurement": "Enzyme degradation CDK9 (% remaining) @ 0.1 μM", "setting": "CDK9", "value": "10/10/10%"}, {"measurement": "Enzyme degradation CDK9 (% remaining) @ 1 μM", "setting": "CDK9", "value": "10/10/10%"}, {"measurement": "Enzyme degradation CDK9 (% remaining) @ 10 μM", "setting": "CDK9", "value": "10/10/10%"}, {"measurement": "Enzyme degradation CDK2 (% remaining) @ 0.1 μM", "setting": "CDK2", "value": "20/20/20%"}, {"measurement": "Enzyme degradation CDK2 (% remaining) @ 1 μM", "setting": "CDK2", "value": "20/20/20%"}, {"measurement": "Enzyme degradation CDK2 (% remaining) @ 10 μM", "setting": "CDK2", "value": "20/20/20%"}]}
{"smiles": "O=C1CC[C@H](N2C(=O)c3cccc(NCC(=O)N4CCC(CN5CCN(c6ccc(Nc7ncnc8c7ncn8[C@H]7C[C@@H](NC(=O)c8cccc(C(F)(F)F)n8)C7)cc6)CC5)CC4)c3C2=O)C(=O)N1", "note": "[Compound 425, N-((1s,3s)-3-(6-((4-(4-((1-((2-(2,6-dioxopiperidin-3-yl)-1,3-dioxoisoindolin-4-yl)glycyl)piperidin-4-yl)methyl)piperazin-1-yl)phenyl)amino)-9H-purin-9-yl)cyclobutyl)-6-(trifluoromethyl)picolinamide]", "values": [{"measurement": "Enzyme degradation CDK9 (% remaining) @ 0.1 μM", "setting": "CDK9", "value": "0/0/0%"}, {"measurement": "Enzyme degradation CDK9 (% remaining) @ 1 μM", "setting": "CDK9", "value": "0/0/0%"}, {"measurement": "Enzyme degradation CDK9 (% remaining) @ 10 μM", "setting": "CDK9", "value": "0/0/0%"}, {"measurement": "Enzyme degradation CDK2 (% remaining) @ 0.1 μM", "setting": "CDK2", "value": "0/0/0%"}, {"measurement": "Enzyme degradation CDK2 (% remaining) @ 1 μM", "setting": "CDK2", "value": "0/0/0%"}, {"measurement": "Enzyme degradation CDK2 (% remaining) @ 10 μM", "setting": "CDK2", "value": "0/0/0%"}]}
{"smiles": "Cc1cccc(C(=O)N[C@H]2C[C@@H](n3cnc4c(NCc5ccc(N6CCN(CC7CCN(c8ccc9c(c8)C(=O)N([C@H]8CCC(=O)NC8=O)C9=O)CC7)CC6)cc5)ncnc43)C2)n1", "note": "[Compound 151, N-((1s,3s)-3-(6-((4-(4-((1-(2-(2,6-dioxopiperidin-3-yl)-1,3-dioxoisoindolin-5-yl)piperidin-4-yl)methyl)piperazin-1-yl)benzyl)amino)-9H-purin-9-yl)cyclobutyl)-6-methylpicolinamide]", "values": [{"measurement": "Enzyme degradation CDK9 (% remaining) @ 0.1 μM", "setting": "CDK9", "value": "0/0/0%"}, {"measurement": "Enzyme degradation CDK9 (% remaining) @ 1 μM", "setting": "CDK9", "value": "0/0/0%"}, {"measurement": "Enzyme degradation CDK9 (% remaining) @ 10 μM", "setting": "CDK9", "value": "0/0/0%"}, {"measurement": "Enzyme degradation CDK2 (% remaining) @ 0.1 μM", "setting": "CDK2", "value": 30, "unit": "%"}, {"measurement": "Enzyme degradation CDK2 (% remaining) @ 1 μM", "setting": "CDK2", "value": 10, "unit": "%"}, {"measurement": "Enzyme degradation CDK2 (% remaining) @ 10 μM", "setting": "CDK2", "value": 10, "unit": "%"}]}
{"smiles": "O=C1CC[C@H](N2C(=O)c3ccc(OCC(=O)N4CCN(CCCN5CCN(c6ccc(Nc7ncnc8c7ncn8[C@H]7C[C@@H](NC(=O)Cc8ccccc8)C7)cc6)CC5)CC4)cc3C2=O)C(=O)N1", "note": "[Compound 234, N-((1s,3s)-3-(6-((4-(4-(3-(4-(2-((2-(2,6-dioxopiperidin-3-yl)-1,3-dioxoisoindolin-5-yl)oxy)acetyl)piperazin-1-yl)propyl)piperazin-1-yl)phenyl)amino)-9H-purin-9-yl)cyclobutyl)-2-phenylacetamide]", "values": [{"measurement": "Enzyme degradation CDK9 (% remaining) @ 0.1 μM", "setting": "CDK9", "value": 60, "unit": "%"}, {"measurement": "Enzyme degradation CDK9 (% remaining) @ 1 μM", "setting": "CDK9", "value": 40, "unit": "%"}, {"measurement": "Enzyme degradation CDK9 (% remaining) @ 10 μM", "setting": "CDK9", "value": 0, "unit": "%"}, {"measurement": "Enzyme degradation CDK2 (% remaining) @ 0.1 μM", "setting": "CDK2", "value": 100, "unit": "%"}, {"measurement": "Enzyme degradation CDK2 (% remaining) @ 1 μM", "setting": "CDK2", "value": 80, "unit": "%"}, {"measurement": "Enzyme degradation CDK2 (% remaining) @ 10 μM", "setting": "CDK2", "value": 70, "unit": "%"}]}
{"smiles": "O=C1CC[C@@H](c2ccc(OCC(=O)N3CCC4(CC3)CC(N3CCN(c5ccc(Nc6ncnc7c6ncn7[C@H]6C[C@@H](NC(=O)c7cccc(C(F)(F)F)n7)C6)cc5)CC3)C4)cc2)C(=O)N1", "note": "[Compound 439, N-((1s,3s)-3-(6-((4-(4-(7-(2-(4-(2,6-dioxopiperidin-3-yl)phenoxy)acetyl)-7-azaspiro[3.5]nonan-2-yl)piperazin-1-yl)phenyl)amino)-9H-purin-9-yl)cyclobutyl)-6-(trifluoromethyl)picolinamide]", "values": [{"measurement": "Enzyme degradation CDK9 (% remaining) @ 0.1 μM", "setting": "CDK9", "value": "10/10/10%"}, {"measurement": "Enzyme degradation CDK9 (% remaining) @ 1 μM", "setting": "CDK9", "value": "10/10/10%"}, {"measurement": "Enzyme degradation CDK9 (% remaining) @ 10 μM", "setting": "CDK9", "value": "10/10/10%"}, {"measurement": "Enzyme degradation CDK2 (% remaining) @ 0.1 μM", "setting": "CDK2", "value": "50/50/50%"}, {"measurement": "Enzyme degradation CDK2 (% remaining) @ 1 μM", "setting": "CDK2", "value": "50/50/50%"}, {"measurement": "Enzyme degradation CDK2 (% remaining) @ 10 μM", "setting": "CDK2", "value": "50/50/50%"}]}
{"smiles": "Cc1cccc(C(=O)N[C@H]2C[C@@H](n3cnc4c(Nc5ccc(N6CCN(CC7CCN(C(=O)C8CN(c9ccc%10c(c9)C(=O)N([C@H]9CCC(=O)NC9=O)C%10=O)C8)CC7)CC6)cc5C)ncnc43)C2)n1", "note": "[Compound 448, N-((1s,3s)-3-(6-((4-(4-((1-(1-(2-(2,6-dioxopiperidin-3-yl)-1,3-dioxoisoindolin-5-yl)azetidin-3-carbonyl)piperidin-4-yl)methyl)piperazin-1-yl)-2-methylphenyl)amino)-9H-purin-9-yl)cyclobutyl)-6-methylpicolinamide]", "values": [{"measurement": "Enzyme degradation CDK9 (% remaining) @ 0.1 μM", "setting": "CDK9", "value": "20/20/20%"}, {"measurement": "Enzyme degradation CDK9 (% remaining) @ 1 μM", "setting": "CDK9", "value": "20/20/20%"}, {"measurement": "Enzyme degradation CDK9 (% remaining) @ 10 μM", "setting": "CDK9", "value": "20/20/20%"}, {"measurement": "Enzyme degradation CDK2 (% remaining) @ 0.1 μM", "setting": "CDK2", "value": "70/70/70%"}, {"measurement": "Enzyme degradation CDK2 (% remaining) @ 1 μM", "setting": "CDK2", "value": "70/70/70%"}, {"measurement": "Enzyme degradation CDK2 (% remaining) @ 10 μM", "setting": "CDK2", "value": "70/70/70%"}]}
{"smiles": "O=C1CCC(c2ccc(OCC(=O)N3CCC(CCN4CCN(c5ccc(Nc6ncnc7c6ncn7[C@H]6C[C@@H](NC(=O)c7c(Cl)cccc7Cl)C6)cc5)CC4)CC3)cc2)C(=O)N1", "note": "(stereo partly drawn) [Compound 434, 2,6-dichloro-N-((1s,3s)-3-(6-((4-(4-(2-(1-(2-(4-(2,6-dioxopiperidin-3-yl)phenoxy)acetyl)piperidin-4-yl)ethyl)piperazin-1-yl)phenyl)amino)-9H-purin-9-yl)cyclobutyl)benzamide]", "values": [{"measurement": "Enzyme degradation CDK9 (% remaining) @ 0.1 μM", "setting": "CDK9", "value": "10/10/10%"}, {"measurement": "Enzyme degradation CDK9 (% remaining) @ 1 μM", "setting": "CDK9", "value": "10/10/10%"}, {"measurement": "Enzyme degradation CDK9 (% remaining) @ 10 μM", "setting": "CDK9", "value": "10/10/10%"}, {"measurement": "Enzyme degradation CDK2 (% remaining) @ 0.1 μM", "setting": "CDK2", "value": 50, "unit": "%"}, {"measurement": "Enzyme degradation CDK2 (% remaining) @ 1 μM", "setting": "CDK2", "value": 70, "unit": "%"}, {"measurement": "Enzyme degradation CDK2 (% remaining) @ 10 μM", "setting": "CDK2", "value": 80, "unit": "%"}]}
